Converted amounts (≈) assume the structure as drawn.
Assays:
[1] = test system: L1210; assay: Concentration required to inhibit 50 percent growth of L1210 mouse leukemia cells; format: functional, cell-based
[2] = biological target: Thymidylate synthase (Mus musculus, UniProt P07607); assay: Concentration required for in vitro inhibition of thymidylate synthase
[3] = pKa of nitrogen -1(N1) of the compound; format: physicochemical
[4] = pKa of nitrogen -3(N3) of the compound; format: physicochemical
[5] = pKa of nitrogen -1(N1) of the compound; too low to measure accurately; format: physicochemical
[6] = Solubility in […] M aqueous NaH2PO4 buffer at pH 7.0 and 25 degree C; format: physicochemical; details: 0.92 M aqueous NaH2PO4 buffer

Chain of Thymidylate synthase (P07607 whole entry): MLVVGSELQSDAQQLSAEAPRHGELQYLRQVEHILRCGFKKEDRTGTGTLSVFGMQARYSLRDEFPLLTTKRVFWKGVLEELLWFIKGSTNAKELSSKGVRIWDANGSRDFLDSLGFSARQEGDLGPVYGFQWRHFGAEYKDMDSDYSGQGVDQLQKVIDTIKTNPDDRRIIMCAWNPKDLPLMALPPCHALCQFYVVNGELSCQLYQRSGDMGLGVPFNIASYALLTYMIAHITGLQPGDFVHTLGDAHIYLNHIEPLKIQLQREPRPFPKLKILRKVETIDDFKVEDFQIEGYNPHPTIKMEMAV

Row | Structure (SMILES) | IC50 [1] [nM] | IC50 [2] [nM] | also measured
1 | Cc1nc2ccc(CN(CCBr)c3ccc(C(=O)N[C@@H](CCC(=O)O)C(=O)O)cc3)cc2c(=O)[nH]1 | 820 | 1300 | 
2 | Cc1nc2ccc(CN(CCS)c3ccc(C(=O)N[C@@H](CCC(=O)O)C(=O)O)cc3)cc2c(=O)[nH]1 | > 100000 | 1760 | 
3 | Cc1ccc2nc(C)nc(O)c2c1 |  |  | pKa [3]: 3.5; pKa [4]: 10.2
4 | Cc1nc2ccc(CN(CCCO)c3ccc(C(=O)N[C@@H](CCC(=O)O)C(=O)O)cc3)cc2c(=O)[nH]1 | 1240 | 540 | 
5 | C#CCN(Cc1ccc2nc(-c3ccccc3)[nH]c(=O)c2c1)c1ccc(C(=O)N[C@@H](CCC(=O)O)C(=O)O)cc1 | > 100000 |  | 
6 | Cc1ccc2nc(CF)nc(O)c2c1 |  |  | pKa [5]: < 2; pKa [4]: 8.5
7 | CCN(Cc1ccc2nc(CO)[nH]c(=O)c2c1)c1ccc(C(=O)N[C@@H](CCC(=O)O)C(=O)O)cc1 | 16000 |  | 
8 | O=C(O)CC[C@H](NC(=O)c1ccc(N(CCF)Cc2ccc3nc(CF)[nH]c(=O)c3c2)cc1)C(=O)O | 1200 |  | 
9 | C=CCN(Cc1ccc2nc(CO)[nH]c(=O)c2c1)c1ccc(C(=O)N[C@@H](CCC(=O)O)C(=O)O)cc1 | 6600 |  | 
10 | C#CCN(Cc1ccc2nc(CC)[nH]c(=O)c2c1)c1ccc(C(=O)N[C@@H](CCC(=O)O)C(=O)O)cc1 | 2500 |  | 
11 | Cc1ccc2nc(C(F)F)nc(O)c2c1 |  |  | pKa [5]: < 2; pKa [4]: 7.2
12 | C#CCN(Cc1ccc2nc(CSc3ncccn3)[nH]c(=O)c2c1)c1ccc(C(=O)N[C@@H](CCC(=O)O)C(=O)O)cc1 | 100000 |  | 
13 | COCCCN(Cc1ccc2nc(C)[nH]c(=O)c2c1)c1ccc(C(=O)N[C@@H](CCC(=O)O)C(=O)O)cc1 | > 100000 | 12900 | 
14 | CCc1nc2ccc(CNc3ccc(C(=O)N[C@@H](CCC(=O)O)C(=O)O)cc3)cc2c(=O)[nH]1 | 3200 | 20000 | 
15 | C#CCN(Cc1ccc2nc(C(C)C)[nH]c(=O)c2c1)c1ccc(C(=O)N[C@@H](CCC(=O)O)C(=O)O)cc1 | 48000 |  | 
16 | C#CCN(Cc1ccc2nc(C(F)F)nc(O)c2c1)c1ccc(C(=O)N[C@@H](CCC(=O)O)C(=O)O)cc1 | 24000 |  | 
17 | CN(Cc1ccc2nc(CO)[nH]c(=O)c2c1)c1ccc(C(=O)N[C@@H](CCC(=O)O)C(=O)O)cc1 | 13000 |  | 
18 | C#CCN(Cc1ccc2nc(N)[nH]c(=O)c2c1)c1ccc(C(=O)N[C@@H](CCC(=O)O)C(=O)O)cc1 | 3400 |  | solubility [6]: 70 µg/mL (≈ 0.147 mM)
19 | O=C(O)CC[C@H](NC(=O)c1ccc(N(CCF)Cc2ccc3nc(CO)[nH]c(=O)c3c2)cc1)C(=O)O | 20000 |  | 
20 | C#CCN(Cc1ccc2nc(CNC(C)=O)[nH]c(=O)c2c1)c1ccc(C(=O)N[C@@H](CCC(=O)O)C(=O)O)cc1 | 125000 |  | 
21 | Cc1ccc2nc(N)nc(O)c2c1 |  |  | pKa [3]: 4.2; pKa [4]: 9.4
22 | O=C(O)CC[C@H](NC(=O)c1ccc(N(CCO)Cc2ccc3nc(CO)[nH]c(=O)c3c2)cc1)C(=O)O | 14500 |  | 
23 | C#CCN(Cc1ccc2nc(C(F)(F)F)[nH]c(=O)c2c1)c1ccc(C(=O)N[C@@H](CCC(=O)O)C(=O)O)cc1 | > 100000 |  | 
24 | Cc1ccc2nc(C(F)(F)F)nc(O)c2c1 |  |  | pKa [5]: < 2; pKa [4]: 5.9
25 | COCCN(Cc1ccc2nc(C)[nH]c(=O)c2c1)c1ccc(C(=O)N[C@@H](CCC(=O)O)C(=O)O)cc1 | 40000 | 16300 | 

Continued by falling IC50 [1], values first:

Row | IC50 [1] [nM] | IC50 [2] [nM] | Structure (SMILES) | also measured
26 | 1200 | 25000 | CC(=O)CN(Cc1ccc2nc(C)[nH]c(=O)c2c1)c1ccc(C(=O)N[C@@H](CCC(=O)O)C(=O)O)cc1 | 
27 | 700 |  | CCN(Cc1ccc2nc(CF)[nH]c(=O)c2c1)c1ccc(C(=O)N[C@@H](CCC(=O)O)C(=O)O)cc1 | 
28 | 400 | 240 | Cc1nc2ccc(CN(CCF)c3ccc(C(=O)N[C@@H](CCC(=O)O)C(=O)O)cc3)cc2c(=O)[nH]1 | 
29 | 400 |  | C#CCN(Cc1ccc2nc[nH]c(=O)c2c1)c1ccc(C(=O)N[C@@H](CCC(=O)O)C(=O)O)cc1 | 
30 | 370 |  | C#CCN(Cc1ccc2nc(CF)[nH]c(=O)c2c1)c1ccc(C(=O)N[C@@H](CCC(=O)O)C(=O)O)cc1 | 
31 | 360 | 170 | CCN(Cc1ccc2nc(C)[nH]c(=O)c2c1)c1ccc(C(=O)N[C@@H](CCC(=O)O)C(=O)O)cc1 | 
32 | 240 | 500 | Cc1nc2ccc(CN(CCO)c3ccc(C(=O)N[C@@H](CCC(=O)O)C(=O)O)cc3)cc2c(=O)[nH]1 | 
33 | 170 | 480 | C=CCN(Cc1ccc2nc(C)[nH]c(=O)c2c1)c1ccc(C(=O)N[C@@H](CCC(=O)O)C(=O)O)cc1 | 
34 | 110 | 300 | Cc1nc2ccc(CN(C)c3ccc(C(=O)N[C@@H](CCC(=O)O)C(=O)O)cc3)cc2c(=O)[nH]1 | 
35 | 90 |  | C#CCN(Cc1ccc2nc(C)[nH]c(=O)c2c1)c1ccc(C(=O)N[C@@H](CCC(=O)O)C(=O)O)cc1 | solubility [6]: 3200 µg/mL (≈ 6.72 mM)
36 | 70 | 4500 | Cc1nc2ccc(CNc3ccc(C(=O)N[C@@H](CCC(=O)O)C(=O)O)cc3)cc2c(=O)[nH]1 | 
37 | 3 | 2920 | CN(Cc1ccc2nc(CF)[nH]c(=O)c2c1)c1ccc(C(=O)N[C@@H](CCC(=O)O)C(=O)O)cc1 | 
